Key:
[1] = test system: Mycosphaerella graminicola; Anamorph: Septoria tritici; Bayer Code SEPTTR; assay: Fungicidal activity against leaf blotch of wheat, three-day curative (3DC); type: in vivo; conditions: wheat plants (variety Yuma), % disease control rating
Experimental: (§1) Evaluation of Fungicidal Activity: Leaf Blotch of Wheat (Mycosphaerella graminicola; Anamorph: Septoria tritici; Bayer Code […]) Wheat plants (variety Yuma) were grown from seed in a greenhouse in 50% mineral soil/50% soil-less Metro mix until the first leaf was fully emerged, with 7-10 seedlings per pot. These plants were inoculated with an aqueous spore suspension of Septoria tritici either prior to or after fungicide treatments. After inoculation the plants were kept in 100% relative humidity (one day in a dark dew chamber followed by two to three days in a lighted dew chamber) to permit spores to germinate and infect the leaf. The plants were then transferred to a greenhouse for disease to develop. The following table presents the activity of typical compounds of the present disclosure when evaluated in these experiments. The effectiveness of the test compounds in controlling disease was determined by assessing the severity of disease on treated plants, then converting the severity to percent control based on the level of disease on untreated, inoculated plants.

[2] = test system: Mycosphaerella graminicola; Anamorph: Septoria tritici; Bayer Code SEPTTR; assay: Fungicidal activity against leaf blotch of wheat, one-day protectant (1DP); type: in vivo; conditions: wheat plants (variety Yuma), % disease control rating
Experimental: as §1

Row | Compound | SEPTTR 100 PPM 3DC [1] | SEPTTR 100 PPM 1DP [2] | melting point [°C]
1 | Cc1ccc(C(=O)n2cc(F)c(=N)n(C)c2=O)cc1 [Compound 2] | A (76-100) | A (76-100) | 103 to 107
2 | Cn1c(=N)c(F)cn(C(=O)c2cc(Cl)cc(Cl)c2)c1=O [Compound 1, 1-(3,5-dichlorobenzoyl)-5-fluoro-4-imino-3-methyl-3,4-dihydropyrimidin-2(1H)-one] | A (76-100) | A (76-100) | 141.6 to 142.6

Source: patent US9271497B2, “1-(substituted-benzoyl)-5-fluoro-4-imino-3-methyl-3,4-dihydropyrimidin-2(1H)-one derivatives” (DOW AGROSCIENCES LLC, priority 2012, dated 2016)
